In patent US20250041313A1, “COMBINATION THERAPY FOR TREATMENT OF CANCER” (CITY OF HOPE, priority 2023, published 2025):
Read-outs that look alike come from different tables or passages of the source.

Experiments:
Assay type in all cases: cell-based, human
SBC3 cells [1] = assay: Imaris quantification of mitochondrial and nuclear areas/morphology
Protocol: (§1) Imaris 9.9.0 (Bitplane, AG), with Surfaces and Cells modules, was used to generate mitochondria morphology data from 2D images and 2D Z-stack subsets. Surfaces were used to evaluate individual mitochondria from cell monolayers and spheroids. Detection parameters were optimized for visible mitochondria and nuclei in each group with varying signal intensities. Roundness ratios were calculated from Surface generated Bounding Box 00 Length measurements. Object lengths less than 0.1 μm were excluded, and lengths greater than 1.26 μm were separately analyzed as clusters. Thresholds were uniformly applied to roundness ratios to categorize mitochondria morphology as elongated (<0.599), intermediate (≥0.600-0.649), or round/fragmentated (≥0.650). The percentage of cells from total number is based on a ratio. A perfectly round object has a ratio of 1.0. The Cells module was used to detect and quantify mitochondria and nucleus area from cell monolayers. Identical parameters were applied to all groups with cell boundary detection based on mitochondria signals. Imaris includes nuclei in cytoplasm measurements, so mitochondrial area is calculated by subtracting nucleus area from cell cytoplasm area. Abnormal nuclei were excluded (<100 μm^2, >750 μm^2).
MitoTracker Red and Hoechst 33342 were used to validate Teri and Leflu effects on intact mitochondrial morphology in SBC3 and SBC5 cells. M1 and MDIVI1 compounds were used as positive controls because they are promoters of mitochondrial fusion. Mitochondrial and nuclear areas were quantified by analyzing object surface area and intensity in Imaris 9.9.0.

SBC5 cells [2] = assay: as above; details: for effect on mitochondrial areas: SBC5
Protocol: as §1
Next, we performed the same analysis with SBC5 cells. […] Mitochondrial elongation in SBC3 cells treated with Teri and Leflu is visible and correlates with Imaris Surface results. […] Although mitochondrial areas of SBC5 cells were not affected by Teri and Leflu treatments, elongations of individual mitochondria were detected with each treatment (FIG. 2I). […] Therefore, it is important to investigate the effects of Teri and Leflu on mitochondrial morphology and cell survival in combination with chemotherapeutic drugs.

SBC5 cells [3] = assay: CCK-8 cell viability/cytotoxicity assay, 72 h
Protocol: (§2) The expression levels of DRP1 and DHODH in SCLC lines were compared with non-malignant BEAS 2B cells. […] Previous studies have shown that Leflu and its active metabolite Teri regulate mitochondrial morphology (9,10,26). […] In vitro cytotoxicity effect of Teri and Leflu was tested in a panel of SCLC cell lines. Ten SCLC cell lines were treated with increasing concentrations of each drug for 72 h.
(§3) Isobologram and CI50 values were calculated using the Chou-Talalay method and IC50 to find synergism (FIG. 3B).

SBC3 cells [4] = assay: CCK-8 cell viability/cytotoxicity assay, 72 h; details: Homo sapiens, SBC-3
Protocol: as §2, §3

panel of SCLC cell lines = assay: CCK-8 cytotoxicity in a panel of SCLC cell lines (statements on the panel); details: 72 h
Protocol: as §2
Among the drugs approved for SCLC, lurbinectedin is used to treat patients with metastatic SCLC with disease progression. Lurbinectedin (Lur) is an inhibitor of RNA polymerase II, which is commonly hyperactivated in SCLC, resulting in excessive transcription in tumor cells (44). In this study, we tested the combination of Lur with Teri to see if it may reduce the viability of SCLC cells.

SBC5 cells [5] = assay: IncuCyte S3 live-cell proliferation
Protocol: (§4) FIGS. 2A-2I. Teriflunomide (Teri) affects the phosphorylation of DRP1 at Ser^616 and mitochondrial/nuclear morphology. FIG. 2A: Effect of Teri and Leflu on SBC3, and SBC5 cells proliferation was recorded by the Sartorius IncuCyte S3 live-cell analysis system (n=2, four technical replicates). […] FIG. 2B: Effect of Teri on DRP1 phosphorylation in SBC3 cells. Cell lysates were subjected to immunoblotting (n=3, biological replicates). FIG. 2C: The expression ratio of level of pDRP1 Ser^616 and Ser^637 to actin was calculated via densitometric analysis of each blot using ImageJ software. The detected ratio of pDRP1 Ser^616 to pDRP1 Ser^637 was calculated and compared in SBC3 cells. […] FIGS. 2D-2E: Calculating pDRP1 Ser^616 fluorescence signal by QuPath software. Bar graphs mean±SE, *p<0.05; **p<0.01; ***p<0.001; ****p<0.0001. Results were analyzed by ANOVA with Tukey post-test. FIG. 2F: The surface areas of SBC3 mitochondria and nuclei were quantified with Imaris Cells modules. The minimal number of SBC3 cells analyzed for each group was 103 (M1 10 μM), and the maximal was 383 (Control). FIG. 2G: SBC5 mitochondria and nuclei surface areas were quantified with Imaris Cells modules. The minimal number of SBC5 cells analyzed for each group was 357 (MDIVI1 10 μM) and the maximal was 570 (Control). Results were analyzed by ANOVA with Tukey post-test, *p<0.05; **p<0.01; ****p<0.0001. Mitochondria in control cells were closely packed around the nuclei and treatment with Teri rearranged the mitochondrial network and extended the area from the nuclei. […] SBC3 cells were treated with drugs for 18 hours, fixed with paraformaldehyde and subjected to IF staining with Tom 20 antibody, nuclei were stained with Hoechst 33342. Scale bar 10 μm. Right inserts represent shape of mitochondria for control and treatments. FIG. 2I: High resolution confocal IF images of mitochondria in SBC5 cells. Scale bar 10 μm. Right inserts represent shape of mitochondria for control and treatments.

SBC3 cells [6] = assay: IncuCyte S3 live-cell proliferation
Protocol: as §4

H446 spheroids = assay: Spheroid MitoSOX assay (mitochondrial superoxide); details: increase after 40 h
Protocol: The IncuCyte system recorded two days MitoSOX red dye (Thermo Fisher Scientific, Waltham, MA) penetration in live H446 spheroids. Spheroids were labeled with 5 μM of dye and red fluorescence was assessed by IncuCyte software. Fluorescence and brightfield images were acquired on an Axio Observer 7 (Carl Zeiss, Jena, Germany) inverted microscope, equipped with a 10×/0.45 NA Plan-Apochromat objective, TL halogen lamp, Colibri 7, filter set 90 HE, and captured on a Zeiss Axiocam 702 CMOS camera. Exposure times and wavelengths were 15 ms (red fluorescence), 9.4 ms (brightfield), BP 555/30 excitation filter, and QBP 592/25 emission filter.

[7] = SBC3 cells, 72 h, read-out: IC50

Compound | Mitochondrial elongation (Airyscan imaging) (SBC3 cells [1]; SBC3) | effect on mitochondrial or nuclear areas (SBC3 cells [1]; SBC3) | effect on mitochondrial areas (SBC5 cells [2]) | Nuclear area (SBC5 cells [2]; SBC5, 20 μM) [μm^2] | IC50 (SBC5 cells [3]; Homo sapiens, SBC-5, 72 h) [µM] | IC50 (SBC3 cells [4]; [7]) [µM] | IC50 doses compared with Teri (panel of SCLC cell lines; ten SCLC cell lines) | cell proliferation (SBC5 cells [5]) | cell proliferation (SBC3 cells [6]) | Mitochondrial area (SBC3 cells [1]; SBC3, 10 μM) [μm^2] | Nuclear size (area) (SBC3 cells [1]; SBC3, 10 μM) [μm^2] | Mitochondrial area (SBC3 cells [1]; SBC3, 20 μM) [μm^2] | Nuclear size (area) (SBC3 cells [1]; SBC3, 20 μM) [μm^2] | Nuclear area (SBC5 cells [2]; SBC5, 10 μM) [μm^2] | mitochondrial superoxide levels (MitoSOX) (H446 spheroids) | IC50 (SBC5 cells [3]) [µM] | IC50 (SBC3 cells [4]; SBC3, CCK-8 72 h, fixed concentrations of Teri and Carbo, read-out: IC50, single treatment and combination treatment) [µM] | IC50 (panel of SCLC cell lines; Homo sapiens, five of ten SCLC cell lines, read-out: IC50 in the five sensitive cell lines) [µM] | cell cytotoxicity at low doses (panel of SCLC cell lines; H69, H82, H446, SBC3, and SBC5 cells)
Cc1oncc1C(=O)Nc1ccc(C(F)(F)F)cc1 [Leflunomide, leflunomide] | visible | did not affect | not affected | 386.8±7.23 | 108 | 8.9 | much higher | inhibited cell proliferation in a dose-dependent manner | inhibited cell proliferation in a dose-dependent manner | – | – | – | – | – | – | – | – | – | –
C/C(O)=C(\C#N)C(=O)Nc1ccc(C(F)(F)F)cc1 [Teriflunomide, teriflunomide] | visible | – | not affected | 369.8±5.94 | 30 | 2 | – | inhibited cell proliferation in a dose-dependent manner | inhibited cell proliferation in a dose-dependent manner | 569±19.9 | 386.8±10.86 | 604.8±28.9 | 423.5±16.57 | 369.5±6.15 | unaffected | 33 | 4.24 | < 11 | –
COc1ccc2[nH]c3c(c2c1)CCN[C@]31CS[C@@H]2c3c(OC(C)=O)c(C)c4c(c3[C@H](COC1=O)N1[C@@H]2[C@H]2c3c(cc(C)c(OC)c3O)C[C@@H]([C@@H]1O)N2C)OCO4 [Lurbinectedin, lurbinectedin] | – | – | – | – | – | – | – | – | – | – | – | – | – | – | unaffected | – | – | – | drastically increased cell cytotoxicity
